What follows are molecules tested against DRAK2 (Homo sapiens (Human), UniProt O94768) (assay: Evaluation of DRAK2 inhibitory activity by ADP-Glo kinase assay). Conditions: ADP-Glo luminescent kinase assay.
Chain of DRAK2 (O94768 whole entry, species assumed): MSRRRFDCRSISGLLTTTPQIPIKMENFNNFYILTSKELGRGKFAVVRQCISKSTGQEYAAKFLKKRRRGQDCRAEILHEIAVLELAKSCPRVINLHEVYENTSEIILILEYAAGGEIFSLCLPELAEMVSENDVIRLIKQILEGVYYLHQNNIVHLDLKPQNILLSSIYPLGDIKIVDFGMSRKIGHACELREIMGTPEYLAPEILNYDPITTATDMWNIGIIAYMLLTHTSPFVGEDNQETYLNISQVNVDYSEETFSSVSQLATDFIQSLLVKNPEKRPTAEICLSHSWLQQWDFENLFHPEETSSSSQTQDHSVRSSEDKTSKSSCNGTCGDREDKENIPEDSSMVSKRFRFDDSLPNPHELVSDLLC
Type: biochemical
From the text: To determine the inhibitory activity of compounds against kinases by the kinase assay kit ADP-GLO.
DRAK2 is a serine/threonine protein kinase. ADP Glo& #8482; Kinase Assay (ADP Glo& #8482; Kinase Assay Kit) is a luminescent kinase assay kit that can detect ADP formed during kinase reactions; this kit can firstly convert ADP into ATP, which is then captured by Ultra Glo& #8482, luciferase and ultimately converts into light. The emitted light signal is positively correlated with the corresponding ATP, thus through this method, the inhibitory activity of small molecule compounds on DRAK2 can be measured.
The compound was dissolved in DMSO before experiment to prepare stock solution.
When using, the stock solution was diluted with culture medium to a desired concentration.
• 1. 1 μl of compound was added to the well for each assay • 2. […] 2 μl of ATP was added to each well of the assay plate • 4. the plate was shook and centrifuged.
2.5 μl ADP-Glo™ reagent was add to terminate kinase reaction and consume unconsumed ATP, leaving only ADP and very low ATP background to incubate at room temperature for 60 minutes.
5 μl of kinase assay reagent was add to convert ADP to ATP, and luciferase and […] were introduced to detect ATP.
Envision was used to measure luminescence
• 1. Values were copied from Envision program
The “minimum” refers to the proportion of without enzyme control, while “maximum” refers to the proportion of DMSO control. • 3. GraphPad Prism 5.0 was used to process data
Through this method, the inhibitory activity of small molecule compounds on DRAK2 can be obtained.
`CCCCCCC=CCCCCCCCc1ccc(O)cc1O` [Compound 1] gave an IC50 of 7.73 ± 0.7 µM. With `CCCCCCc1cccc(CCCc2cc(O)cc(O)c2)c1` [Compound 17] the IC50 was 4.94 ± 1.18 µM. In the case of `CCCCCCc1cccc(CCCc2cc(O)cc(O)c2Cl)c1` [Compound 28], the IC50 is reported as 4.06 ± 0.35 µM. `CCCCCCc1cccc(CCCc2cc(O)cc(NS(=O)(=O)CC)c2)c1` [Compound 39] gave an IC50 of 4.93 ± 1.09 µM.
